Source: patent US7407966B2, “Thienopyridinone compounds and methods of treatment” (Epix Delaware, Inc., priority 2004, dated 2008)

biological target: 5-HT4e receptor (Homo sapiens, UniProt Q13639); assay: 5-HT4e receptor binding affinity assay; conditions: binding affinity to 5-HT4e receptors
Experimental: Compounds of the invention synthesized above and their binding affinity to 5-HT4e receptors was determined.

Chain of 5-HT4e receptor (Q13639 1-378 isoform Q13639-5): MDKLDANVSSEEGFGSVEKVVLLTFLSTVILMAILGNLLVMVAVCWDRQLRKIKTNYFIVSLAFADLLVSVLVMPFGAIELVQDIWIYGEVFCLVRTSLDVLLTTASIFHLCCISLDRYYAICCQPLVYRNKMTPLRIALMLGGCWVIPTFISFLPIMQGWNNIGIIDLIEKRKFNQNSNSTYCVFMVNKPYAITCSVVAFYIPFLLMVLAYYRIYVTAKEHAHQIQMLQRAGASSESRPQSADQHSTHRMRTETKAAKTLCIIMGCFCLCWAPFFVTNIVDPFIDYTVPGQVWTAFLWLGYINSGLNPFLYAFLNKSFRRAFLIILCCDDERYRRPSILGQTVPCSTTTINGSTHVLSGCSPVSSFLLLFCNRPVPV

Which Ki does the source give for `CCN1CCC(NC(=O)c2c(O)c3ccsc3n(C(C)C)c2=O)CC1` [Example 1, 6,7-Dihydro-N-(1-ethylpiperidin-4-yl)-4-hydroxy-7-isopropyl-6-oxothieno[2,3-b]pyridine-5-carboxamide] here?
Its Ki is 81 nM.

Which Ki does the source give for `CCCN1CCC(NC(=O)c2c(O)c3ccsc3n(C(C)C)c2=O)CC1` [Example 2, 6,7-Dihydro-4-hydroxy-7-isopropyl-6-oxo-N-(1-propylpiperidin-4-yl)thieno[2,3-b]pyridine-5-carboxamide] here?
Its Ki is 33 nM.

How did the Ki turn out when `CCCCN1CCC(NC(=O)c2c(O)c3ccsc3n(C(C)C)c2=O)CC1` [Example 3, N-(1-Butylpiperidin-4-yl)-6,7-dihydro-4-hydroxy-7-isopropyl-6-oxothieno[2,3-b]pyridine-5-carboxamide] was run?
The Ki was 47 nM.

`CC(C)n1c(=O)c(C(=O)NC2CCN(CCCO)CC2)c(O)c2ccsc21` [Example 4, 6,7-Dihydro-4-hydroxy-N-(1-(3-hydroxypropyl)piperidin-4-yl)-7-isopropyl-6-oxothieno[2,3-b]pyridine-5-carboxamide] was tested. Which Ki did it give?
Its Ki is 31 nM.

`CC(C)n1c(=O)c(C(=O)NC2CCN(CC3CC3)CC2)c(O)c2ccsc21` [Example 5, N-(1-(Cyclopropylmethyl)piperidin-4-yl)-6,7-dihydro-4-hydroxy-7-isopropyl-6-oxothieno[2,3-b]pyridine-5-carboxamide] was tested. Which Ki did it give?
Its Ki is 62 nM.

For `CC(C)CN1CCC(NC(=O)c2c(O)c3ccsc3n(C(C)C)c2=O)CC1` [Example 6, 6,7-Dihydro-4-hydroxy-N-(1-isobutylpiperidin-4-yl)-7-isopropyl-6-oxothieno[2,3-b]pyridine-5-carboxamide], which Ki is on record?
Its Ki is 220 nM.

For `CC(C)n1c(=O)c(C(=O)NC2CCN(CCc3ccccc3)CC2)c(O)c2ccsc21` [Example 7, 6,7-Dihydro-4-hydroxy-7-isopropyl-6-oxo-N-(1-phenethylpiperidin-4-yl)thieno[2,3-b]pyridine-5-carboxamide], which Ki is on record?
The Ki was 100 nM.

With `CCCCCN1CCC(NC(=O)c2c(O)c3ccsc3n(C(C)C)c2=O)CC1` [Example 8, 6,7-Dihydro-4-hydroxy-7-isopropyl-6-oxo-N-(1-pentylpiperidin-4-yl)thieno[2,3-b]pyridine-5-carboxamide] as the compound, how does the Ki read?
Its Ki is 47 nM.

For `CCCN1CCC(NC(=O)c2c(O)c3ccsc3n(CC)c2=O)CC1` [Example 9, 6,7-Dihydro-7-ethyl-4-hydroxy-6-oxo-N-(1-propylpiperidin-4-yl)thieno[2,3-b]pyridine-5-carboxamide], which Ki is on record?
The Ki was 31 nM.

Which Ki does the source give for `CCn1c(=O)c(C(=O)NC2CCN(CCCO)CC2)c(O)c2ccsc21` [Example 10, 6,7-Dihydro-7-ethyl-4-hydroxy-N-(1-(3-hydroxypropyl)piperidin-4-yl)-6-oxothieno[2,3-b]pyridine-5-carboxamide] here?
The Ki was 100 nM.
